# According to patent publication US20190249215A1, “Three-Dimensional Cell-Derived Extracellular Matrix/Gel Systems” (Institute For Cancer Research d/b/a The Research Institute …, priority 2018, published 2019):
# Experiments:
# [1] = test system: pERK1/2; conditions: KRAS cells within CAF-CDMs produced onto patho stiffness gels; 20 μM U0126 overnight; fractionated cell lysates
# Method: (§1) At the end of the experiments, KRAS cells were lysed with cell lysis buffer from Cell Signaling Technology (Danvers, Mass.) supplemented with Pierce™ Phosphatase and protease Inhibitor Mini Tablets (Cat Nos. 88667 and 88665, respectively) from Thermo Fisher Scientific (Waltham, Mass.). Proteins were SDS-PAGE dissolved and transferred to PVDF membranes. Blots were incubated with the following primary antibodies: Rabbit anti-human Phospho-p44/42 ERK1/2 (Thr^202/Tyr^204)(Cat No. 4370) and rabbit anti-human total-p44/42 ERK1/2 (Cat No. 9102) obtained from Cell Signaling Technology (Danvers, Mass.). Anti-phospho-p90RSK1 (Ser^380) (Cat No. 04-418) and anti-human glyceraldehyde 3-phosphate dehydrogenase (GAPDH) (Cat No. MAB374) obtained from Millipore (Billerica, Mass.). Horseradish peroxidase-conjugated, anti-species matched, secondary antibodies were obtained from Sigma Aldrich (St. Louis, Mo.). Protein bands were visualized using the Protein Simple FluorChemE System, (San Jose, Calif.). Nuclear levels of pERK1/2 were assessed using the Subcellular Protein Fractionation Kit (Thermo Scientific, Waltham, Mass.). Isolation of nuclear versus whole cell fractions was carried out according to the manufacturer's instructions.
# [2] = test system: phospho-p90RSK; conditions: KRAS cells within CAF-CDMs produced onto patho gels; 20 μM U0126 overnight
# Method: as §1
# [3] = test system: RFP-expressing KRAS cell spheroids; experiment: Spheroid spreading assay; type: cell-based, human; conditions: KRAS spheroids within CAF-CDMs produced onto patho stiffness gels; 20 μM U0126 overnight
# Method: Red fluorescence protein (RFP)-expressing KRAS cells generated in our laboratory were trypsinized and suspended in spheroid formation media (Irvine Scientific, Santa Ana, Calif., Catalog ID: 91130) and allowed to incubate overnight. Thirty μl drops containing 2.5×10^3 cells were carefully placed on a lid of a sterile petri dish. The dish was filled with 5 mL media and the lid with the “hanging drops” was carefully placed, drops face down, and incubated overnight. Spheroids were removed from the lids, one by one, placed onto the diverse substrates or CDMs, and allowed to adhere for 2 hours. Subsequently, the spheroid formation media was diluted with regular pancreatic epithelial growth media (see above). Following a 48-hour incubation, cell spreading was visualized using an inverted fluorescence microscope equipped with epifluorescent image acquisition capabilities. Data were normalized to the initial size of each spheroid at time 0 hour. When indicated, spheroids were treated overnight with 20 μM of the MEK1/2 inhibitor U0126 from Calbiochem or DMSO, while siRNA transfection. The images were processed using MetaMorph 7.8.1.0 software (Molecular Devices, Downingtown, Pa.). A minimum of 5 spheres per condition were analyzed in at least three independent experiments.
structure (smiles),measurement,setting,value
"N#CC(=C(N)Sc1ccccc1N)C(C#N)=C(N)Sc1ccccc1N [U0126, 1,4-diamino-2,3-dicyano-1,4-bis[2-aminophenylthio] butadiene]",nuclear levels of pERK1/2,[1],significant loss of pERK1/2 at nuclear locations
same,phosphorylation levels of p90 ribosomal S6 kinase (pho-p90RSK),[2],downregulated
same,KRAS spheroid area spread,[3],significant reduction in KRAS spheroid spread
